{"source": "patent US9790173B2", "about": "“Alpha-7 nicotinic acetylcholine receptor modulators and uses thereof-I” (MERCK SHARP & DOHME CORP., priority 2012, dated 2017)", "key": {"rat α7 nAChRs": {"target": "T1, rat α7 nAChRs (Rattus norvegicus, UniProt Q05941)", "T1 construct": "expressed in transfected cells; host or cells: GH4C1 cells (rat pituitary line) stably expressing α7 nAChR", "T1 sequence (Q05941 23-502)": "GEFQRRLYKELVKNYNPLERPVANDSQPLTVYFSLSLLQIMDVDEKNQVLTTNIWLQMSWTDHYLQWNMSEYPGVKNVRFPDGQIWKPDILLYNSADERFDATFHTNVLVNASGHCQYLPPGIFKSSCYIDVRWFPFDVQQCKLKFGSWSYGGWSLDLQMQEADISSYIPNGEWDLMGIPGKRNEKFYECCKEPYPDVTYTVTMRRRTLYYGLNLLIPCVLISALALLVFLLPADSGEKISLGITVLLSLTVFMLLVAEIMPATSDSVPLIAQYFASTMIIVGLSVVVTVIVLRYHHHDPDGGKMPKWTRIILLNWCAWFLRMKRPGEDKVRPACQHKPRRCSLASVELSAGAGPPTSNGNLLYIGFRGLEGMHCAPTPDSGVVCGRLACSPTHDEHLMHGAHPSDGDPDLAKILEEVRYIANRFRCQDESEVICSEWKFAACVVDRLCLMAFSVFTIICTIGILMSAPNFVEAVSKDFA", "assay": "Automated planar patch clamp (Patchliner) electrophysiology, α7 nAChR PAM activity", "assay_type": "cell-based", "parameters": "key to Type I or Type II: I: Type 1 predominately affects the peak current; Type II modulators affect the peak current and also delay the desensitization of the receptor", "conditions": "for activation at 3 µM: GH4-C1, 3 μM compound in the presence of acetylcholine, GH4C1 cells expressing rat α7 nAChRs, peak current, read-out: Peak potentiation at 3 μM compound; for Type I or Type II: modulator type based on the electrophysiology trace", "procedure": "Tested compounds were prepared by serial dilutions of 10 mM stock solution in DMSO to concentrations of the compound 1000 times higher than its final concentration. The DMSO stock solutions were then diluted 1:100 in the recording buffer bringing DMSO concentration to 1%. These intermediate solutions were further diluted 10 times with buffer to obtain final concentrations and lower DMSO concentration to 0.1%. […]\nCompounds of the invention may be evaluated by electrophysiology using a Patchliner® (Nanion Technologies GmbH, Germany), an automated planar patch-clamp platform of medium throughput was used as a first step in electrophysiological assessment of α7 nAChR positive allosteric modulators (PAMs).\nBriefly, intracellular (KCl—50 mM, NaCl—10 mM, KF—60 mM, EGTA—20 mM, HEPES—10 mM, pH—7.2, 285 mOsmol) and extracellular (NaCl—140 mM, KCl—4 mM, CaCl2—2 mM, MgCl2—1 mM, HEPES—10 mM, D-Glucose—5 mM, pH—7.4, 298 mOsmol) solutions were automatically pipetted onto NPC-16 chip (medium resistance ˜2.5-2.6 MΩ). Suspension of GH4C1 cells expressing rat α7 nAChRs was introduced in 4 wells of a medium resistance chip and suction was applied to attract cells in the holes. The extracellular solution was subsequently exchanged to high calcium solution (NaCl—80 mM, KCl—3 mM, CaCl2—45 mM, HEPES—10 mM, pH—7.4, 298 mOsmol) followed by gigaohm seal formation and obtaining whole-cell configuration. The rest of protocol was carried out in the high-calcium recording solution. Holding potential was −70 mV throughout the protocol. A control response to 60 or 100 μM of ACh was obtained first. Next, a cell was pre-incubated with compound of interest at 3 μM for ˜30 s after which the compound was co-applied with acetylcholine.\nAmplitude of the responses was measured in HEKA Patchmaster software (HEKA Elektronik, Germany) and percentage of potentiation calculated. Recording was repeated […] a minimum of two replicates had been obtained per compound.\nCompounds shown in Table 1 were evaluated by automated planar patch clamp on the Patchliner® as described in Example P2.1. […] The compounds are designated either as Type I or Type II modulators based on the electrophysiology trace. Type 1 predominately affects the peak current. Type II modulators affect the peak current and also delay the desensitization of the receptor."}, "mice": {"system": "mice", "assay": "T-maze Continuous Alternation Task (T-CAT), scopolamine-induced cognitive impairment", "assay_type": "in vivo", "conditions": "mouse; dosed orally at 10 mg/kg; scopolamine-induced deficit", "excerpt": "The T-maze Continuous Alternation Task (T-CAT) measures spontaneous alternation, which is the innate tendency of mice to alternate free choices in a T-maze over a series of successive runs. This sequential procedure relies on working memory and is sensitive to various pharmacological manipulations affecting memory processes.\nThe T-maze apparatus is made of gray Plexiglas with a main stem (55 cm long×10 cm wide×25 cm high) and two arms (30 cm long×10 cm wide×25 cm high) positioned at 90 degree angle relative to the main stem. A start box (15 cm long×10 cm wide) is separated from the main stem by a sliding door. Sliding doors are also provided to close specific arms during the forced-choice alternation task.\nThe experimental protocol consists of one single session, which starts with 1 “forced-choice” trial, followed by 14 “free-choice” trials. In the first “forced-choice” trial, the animal is confined for 5 s in the start arm and then it is released while either the left or right goal arm is blocked by a sliding door. The animal will negotiate the maze, eventually enter the open goal arm, and return to the start position. Immediately after the return to the start position, the left or right goal door is opened and the animal is allowed to choose freely between the left and right goal arm (“free choice” trials). The animal is considered to have entered an arm when it places four paws in the arm. A session is terminated and the animal is removed from the maze as soon as 14 free-choice trials have been performed or 10 minutes have elapsed, whichever event occurs first. The percentage of alternation over the 14 free-choice trials is determined for each mouse and is used as an index of working memory performance. This percentage is defined as entry in a different arm of the T-maze over successive visits (i.e., left-right-left-right, etc).\nScopolamine administered 20 minutes prior the initiation of the T-maze session is used to induce disruption in the spontaneous alternation of mice. Test compounds are administered 60 minutes prior the start of the T-maze session in order to evaluate their ability to reverse the scopolamine effect.\nThe apparatus is cleaned between each animal using alcohol (70°). Urine and faeces are removed from the maze. During the trials, animal handling and the visibility of the operator are minimized as much as possible.\nThe compounds were dosed orally at 10 mg/kg."}}, "data": [{"molecule": "NS(=O)(=O)c1ccc([C@H]2C[C@@H]2CNc2ccc(F)cc2)cc1", "note": "[Example 3, ±trans 4-(2-{[(4-fluorophenyl)amino]methyl}cyclopropyl)benzenesulfonamide]", "values": [{"measurement": "activation at 3 µM", "setting": "rat α7 nAChRs", "value": 969, "unit": "%"}, {"measurement": "Type I or Type II", "setting": "rat α7 nAChRs", "value": "I"}, {"measurement": "T-maze % control at 10 mg/kg", "setting": "mice", "value": 62, "unit": "% control"}]}, {"molecule": "CC1(C)[C@H](CNc2ccc(F)cc2)[C@H]1c1ccc(S(N)(=O)=O)cc1", "note": "[Example 13, ±trans 4-[3-{[(4-fluorophenyl)amino]methyl}-2,2-dimethylcyclopropyl]benzenesulfonamide]", "values": [{"measurement": "Type I or Type II", "setting": "rat α7 nAChRs", "value": "II"}, {"measurement": "T-maze % control at 10 mg/kg", "setting": "mice", "value": 80, "unit": "% control"}]}, {"molecule": "CC1(C)[C@@H](CNc2ccc(F)cc2C(F)(F)F)[C@@H]1c1ccc(S(N)(=O)=O)cc1", "note": "[Example 17, 4-[(1S,3S)-3-({[4-fluoro-2-(trifluoromethyl)phenyl]amino}methyl)-2,2-dimethylcyclopropyl]benzenesulfonamide]", "values": [{"measurement": "Type I or Type II", "setting": "rat α7 nAChRs", "value": "I"}, {"measurement": "T-maze % control at 10 mg/kg", "setting": "mice", "value": 100, "unit": "% control"}]}, {"molecule": "COc1ccc(Cl)cc1NC[C@@H]1[C@@H](c2ccc(S(N)(=O)=O)cc2)C1(C)C", "note": "[Example 20, 4-[(1R,3R)-3-{[(5-chloro-2-methoxyphenyl)amino]methyl}-2,2-dimethylcyclopropyl]benzenesulfonamide]", "values": [{"measurement": "Type I or Type II", "setting": "rat α7 nAChRs", "value": "I"}, {"measurement": "T-maze % control at 10 mg/kg", "setting": "mice", "value": 100, "unit": "% control"}]}, {"molecule": "COc1ccc(Cl)cc1NC[C@H]1[C@H](c2ccc(S(N)(=O)=O)cc2)C1(C)C", "note": "[Example 21, 4-[(1S,3S)-3-{[(5-chloro-2-methoxyphenyl)amino]methyl}-2,2-dimethylcyclopropyl]benzenesulfonamide]", "values": [{"measurement": "Type I or Type II", "setting": "rat α7 nAChRs", "value": "II"}, {"measurement": "T-maze % control at 10 mg/kg", "setting": "mice", "value": 100, "unit": "% control"}]}, {"molecule": "Cc1cc(F)c(F)cc1NC[C@@H]1[C@@H](c2ccc(S(N)(=O)=O)cc2)C1(C)C", "note": "[Example 30, 4-[(1R,3R)-3-{[(4,5-difluoro-2-methylphenyl)amino]methyl}-2,2-dimethylcyclopropyl]benzenesulfonamide]", "values": [{"measurement": "activation at 3 µM", "setting": "rat α7 nAChRs", "value": 419, "unit": "%"}, {"measurement": "Type I or Type II", "setting": "rat α7 nAChRs", "value": "I"}, {"measurement": "T-maze % control at 10 mg/kg", "setting": "mice", "value": 70, "unit": "% control"}, {"measurement": "melting point", "value": "210 to 212", "unit": "°C"}]}, {"molecule": "CC1(C)[C@@H](CNc2ccc(F)cc2OC(F)F)[C@@H]1c1ccc(S(N)(=O)=O)cc1", "note": "[Example 50, 4-[(1S,3S)-3-({[2-(difluoromethoxy)-4-fluorophenyl]amino}methyl)-2,2-dimethylcyclopropyl]benzenesulfonamide]", "values": [{"measurement": "Type I or Type II", "setting": "rat α7 nAChRs", "value": "II"}, {"measurement": "T-maze % control at 10 mg/kg", "setting": "mice", "value": 77, "unit": "% control"}]}, {"molecule": "CC1(C)[C@H](CNc2ccc(F)cc2OC(F)F)[C@H]1c1ccc(S(N)(=O)=O)cc1", "note": "[Example 51, 4-[(1R,3R)-3-({[2-(difluoromethoxy)-4-fluorophenyl]amino}methyl)-2,2-dimethylcyclopropyl]benzenesulfonamide]", "values": [{"measurement": "activation at 3 µM", "setting": "rat α7 nAChRs", "value": 171, "unit": "%"}, {"measurement": "Type I or Type II", "setting": "rat α7 nAChRs", "value": "I"}, {"measurement": "T-maze % control at 10 mg/kg", "setting": "mice", "value": 81, "unit": "% control"}]}]}
